# Biological target: TTR (transthyretin) (Homo sapiens, UniProt P02766)
# Test: native MS of Aβ([…]) binding to TTR with and without tafamidis
# Conditions: TTR tetramer coincubated with Aβ(12–28) and tafamidis, overnight, room temperature; indirect read-out (tetramer stabilization)
compound,measurement,value
O=C(O)c1ccc2nc(-c3cc(Cl)cc(Cl)c3)oc2c1 [tafamidis],native MS of Aβ(12-28) binding to TTR with and without tafamidis,"In the presence of tafamidis, we observed a clear decrease in Aβ binding to TTR"
